Source: patent publication US9126966B2, “Cationic lipids and methods of use thereof” (Protiva Biotherapeutics, Inc., priority 2011, dated 2015)

System: Liver ApoB mRNA
Experiment: Liver ApoB mRNA knockdown after IV injection of LNP formulations, branched DNA assay (QuantiGene) relative to GAPDH
Type: in vivo, female Balb/c mice
Settings: 1:57 LNP with ApoB siRNA; for ApoB knockdown relative to PBS control: IV 0.033 mg/kg total siRNA, standard deviation in brackets; for ApoB knockdown relative to PBS control / ApoB knockdown relative PBS control: liver mRNA at 48 hours; for ApoB-silencing activity of LNP formulations (in words): IV 0.033 mg/kg, summary of Table 3
Procedure: (§1) LNP formulations were administered by IV injection at 0.033 mg/kg total siRNA dose into female Balb/c mice (n=3 per group). Liver ApoB mRNA levels were evaluated at 48 hours after LNP administration by a branched DNA assay (QuantiGene assay) to assess ApoB mRNA relative to the housekeeping gene GAPDH.
as §1, with “intravenous” for “IV”, “doses of 0.0075, 0.015 and 0.03” for “0.033”, “evaluated” for “evaluated at”, “and standardized” for “to assess ApoB mRNA”

SMILES	ApoB knockdown relative to PBS control	ApoB-silencing activity of LNP formulations (in words)	ApoB knockdown relative PBS control (IV 0.0075 mg/kg total siRNA) [%]	ApoB knockdown relative PBS control (IV 0.015 mg/kg total siRNA) [%]	ApoB knockdown relative PBS control (IV 0.03 mg/kg total siRNA) [%]	Potency of LNP formulations compared with reference lipid (in words) (IV 0.0075, 0.015 and 0.03 mg/kg, summary of Table 5)
CCCCC/C=C\C/C=C\CCCCCCCCC1CC(CCCCCCC/C=C\C/C=C\CCCCC)OC(CCN(C)C)O1 (centres unmarked) [Compound 8, 2-(4-((8Z,11Z)-heptadeca-8,11-dien-1-yl)-6-((9Z,12Z)-octadeca-9,12-dien-1-yl)-1,3-dioxan-2-yl)-N,N-dimethylethanamine]	−71 (±2.7) %	particularly potent ApoB-silencing activity				
CCCCC/C=C\C/C=C\CCCCCCCCC1CC(CCCCCCC/C=C\C/C=C\CCCCC)OC(CCCN(C)C)O1 (centres unmarked) [Compound 9, 3-(4-((8Z,11Z)-heptadeca-8,11-dien-1-yl)-6-((9Z,12Z)-octadeca-9,12-dien-1-yl)-1,3-dioxan-2-yl)-N,N-dimethylpropan-1-amine]	−80 (±3.3) %	particularly potent ApoB-silencing activity	−39	−51	−73	more potent than LNP formulations containing C2K
CCCCC/C=C\C/C=C\CCCCCCCCC1(CCCCCCCC/C=C\C/C=C\CCCCC)OCC(CCN(C)C)O1 (centres unmarked) [Compound C2K, 2,2-dilinoleyl-4-(2-dimethylaminoethyl)[1,3]-dioxolane, reference compound]			−25	−41	−54	
